The source of these data is US20210275698A1, “COMPOUNDS AND COMPOSITIONS FOR TARGETING MACROPHAGES AND OTHER MANNOSE-BINDING C-TYPE LECTIN RECEPTOR HIGH EXPRESSING CELLS AND METHODS OF TREATING AND DIAGNOSIS USING SAME” (priority 2015, published 2021).

For assay [1], the system named is luciferase-expressing M. tuberculosis H37Rv strain (M.tb-Lux). The experiment in a line: Anti-bacterial activity against M.tb in human macrophages (luminescence). The assay is classed as cell-based. Conditions: drug equivalency; up to 72 h.
Assay [2] has as its system monocyte-derived CD206+ macrophages. The experiment in a line: CD206 targeting assay: uptake, killing and apoptosis of monocyte-derived CD206+ macrophages. The format is cell-based.

On to `NNC(=O)c1ccncc1` [INH, isoniazid], for which, in assay [1], the “lowest concentration at which activity against M.tb was maintained” value turned out to be 0.0312 µM.
Turning to `COc1cccc2c1C(=O)c1c(O)c3c(c(O)c1C2=O)C[C@@](O)(C(=O)CO)C[C@@H]3O[C@H]1C[C@H](N)[C@H](O)[C@H](C)O1` [Docorubicin, doxorubicin], in assay [2] (FIG. 17), the “killing / toxicity to CD206 expressing macrophages (Annexin levels)” value was “no toxicity”. For the same compound, in assay [2] (overnight), the “apoptosis induction (Annexin-V expression on MOs and in tumor tissue)” value was “less effect”.
